# From US11339160B2, “Imidazole and triazole containing bicyclic compounds as JAK inhibitors” (THERAVANCE BIOPHARMA R&D IP, LLC, priority 2019, dated 2022)
# Biological target: JAK3 (Homo sapiens (Human), UniProt P52333)
# Assay: Biochemical JAK3 kinase assay (LanthaScreen)
# Conditions: selectivity, difference of pKi values
# Experimental: Assay 1: Biochemical JAK and Tyk2 Kinase Assays
# A panel of four LanthaScreen JAK biochemical assays (JAK1, 2, 3 and Tyk2) were carried in a common kinase reaction buffer (50 mM HEPES, pH 7.5, 0.01% Brij-35, 10 mM MgCl2, and 1 mM EGTA). Recombinant GST-tagged JAK enzymes and a GFP-tagged STAT1 peptide substrate were obtained from Life Technologies.
# Serially or discretely diluted compounds were pre-incubated with each of the four JAK enzymes and the substrate in white 384-well microplates (Corning) at ambient temperature for 1 h. ATP was subsequently added to initiate the kinase reactions in 10 μL total volume, with 1% DMSO. […] Kinase reactions were allowed to proceed for 1 hour at ambient temperature before a 10 μL preparation of EDTA (10 mM final concentration) and Tb-anti-pSTAT1 (pTyr701) antibody (Life Technologies, 2 nM final concentration) in TR-FRET dilution buffer (Life Technologies) was added. The plates were allowed to incubate at ambient temperature for 1 h before being read on the EnVision reader (Perkin Elmer). Emission ratio signals (520 nm/495 nm) were recorded and utilized to calculate the percent inhibition values based on DMSO and background controls.
# For dose-response analysis, percent inhibition data were plotted vs. compound concentrations, and IC50 values were determined from a 4-parameter robust fit model with the Prism software (GraphPad Software). Results were expressed as pIC50 (negative logarithm of IC50) and subsequently converted to pKi (negative logarithm of dissociation constant, Ki) using the Cheng-Prusoff equation.
# Sequence of JAK3 (P52333 whole entry): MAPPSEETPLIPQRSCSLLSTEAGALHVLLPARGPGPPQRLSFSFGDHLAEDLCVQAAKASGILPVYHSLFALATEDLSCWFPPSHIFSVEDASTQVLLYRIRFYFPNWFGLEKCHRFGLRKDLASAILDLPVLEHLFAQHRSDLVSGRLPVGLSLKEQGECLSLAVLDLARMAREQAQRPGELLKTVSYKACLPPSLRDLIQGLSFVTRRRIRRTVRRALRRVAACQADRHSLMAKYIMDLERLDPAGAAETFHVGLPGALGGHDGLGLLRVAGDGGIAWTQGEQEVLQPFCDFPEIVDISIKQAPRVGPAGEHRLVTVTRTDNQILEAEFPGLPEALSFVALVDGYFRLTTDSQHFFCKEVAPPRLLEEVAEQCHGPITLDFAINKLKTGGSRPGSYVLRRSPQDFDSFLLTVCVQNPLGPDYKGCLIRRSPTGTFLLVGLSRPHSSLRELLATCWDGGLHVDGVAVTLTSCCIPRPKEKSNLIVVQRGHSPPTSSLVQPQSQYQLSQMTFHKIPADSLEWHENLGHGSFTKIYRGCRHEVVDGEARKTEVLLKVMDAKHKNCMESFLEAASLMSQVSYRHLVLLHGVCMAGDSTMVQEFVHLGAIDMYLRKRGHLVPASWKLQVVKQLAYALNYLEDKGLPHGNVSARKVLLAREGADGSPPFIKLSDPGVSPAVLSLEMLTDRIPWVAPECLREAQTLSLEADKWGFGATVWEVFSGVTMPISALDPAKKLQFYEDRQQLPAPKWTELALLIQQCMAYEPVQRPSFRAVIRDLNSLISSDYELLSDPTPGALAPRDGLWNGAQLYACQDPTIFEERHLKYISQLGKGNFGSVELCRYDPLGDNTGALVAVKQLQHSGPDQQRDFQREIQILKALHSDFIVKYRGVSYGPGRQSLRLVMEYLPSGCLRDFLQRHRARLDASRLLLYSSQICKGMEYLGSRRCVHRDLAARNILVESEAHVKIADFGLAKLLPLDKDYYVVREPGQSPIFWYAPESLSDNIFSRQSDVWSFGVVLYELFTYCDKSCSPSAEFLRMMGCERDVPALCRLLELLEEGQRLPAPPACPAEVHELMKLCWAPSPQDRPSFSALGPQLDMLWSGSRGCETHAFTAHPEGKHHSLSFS
row,SMILES,JAK3 (pKi)-JAK1 (pKi)
1,C=CC(=O)N1CCC(Oc2cc(-c3cc(F)c(O)cc3CC)cn3cncc23)C(F)(F)C1 (centres unmarked) [Example 49],C (a value of 1.8 to 2.3)
2,C=CC(=O)N1CC2(CCC2Oc2cc(-c3cc(F)c(O)cc3CC)cn3cncc23)C1 (centres unmarked) [Example 46],B (a value of 2.3 to 3)
3,CN(C)C/C=C/C(=O)N1CC(COc2cc(-c3ccc(O)cc3)cn3cncc23)C1 [Example 19],A (a value of 3 or above)
4,CCc1cc(O)c(F)cc1-c1cc(OCC2CN(C(=O)/C=C/CN(C)C)C2)c2cncn2c1 [Example 24],A (a value of 3 or above)
5,C=CC(=O)N1[C@@H]2CC[C@H]1C[C@H](Nc1cc(-c3ccc(O)cc3)cn3cncc13)C2 [Example 50],B (a value of 2.3 to 3)
6,C=CC(=O)N1[C@H](C)C[C@H](Oc2cc(-c3ccc(O)cc3)cn3cncc23)C[C@@H]1C [Example 40],B (a value of 2.3 to 3)
7,C=CC(=O)N1CCC[C@H](Oc2cc(-c3cc(F)c(O)cc3CC)cn3cncc23)C1 [Example 16],B (a value of 2.3 to 3)
8,"C=CC(=O)N1CC(COc2cc(-c3cc(F)c(O)cc3CC)cn3cncc23)C1 [Example 13, 1-(3-(((6-(2-ethyl-5-fluoro-4-hydroxyphenyl)imidazo[1,5-a]pyridin-8-yl)oxy)methyl)azetidin-1-yl)prop-2-en-1-one]",A (a value of 3 or above)
9,CN(C)C/C=C/C(=O)N1CC(COc2cc(-c3ccc(O)c(F)c3)cn3cncc23)C1 [Example 22],A (a value of 3 or above)
10,C=CC(=O)N1CC[C@@H](Oc2cc(-c3ccc(O)cc3)cn3cncc23)C[C@@H]1C [Example 39],A (a value of 3 or above)
11,"C=CC(=O)N1CCC(COc2cc(-c3ccc(O)cc3)cn3cncc23)CC1 [Example 2, 1-(4-(((6-(4-hydroxyphenyl)imidazo[1,5-a]pyridin-8-yl)oxy)methyl)piperidin-1-yl)prop-2-en-1-one]",A (a value of 3 or above)
12,C=CC(=O)N1CC(COc2cc(-c3cc(F)c(O)c(F)c3)cn3cncc23)C1 [Example 32],A (a value of 3 or above)
13,C=CC(=O)N1CC(COc2cc(-c3ccc(O)c(F)c3)cn3cncc23)C1 [Example 20],A (a value of 3 or above)
14,C=CC(=O)N1CC(COc2cc(-c3cc(C)c(O)c(C)c3)cn3cncc23)C1 [Example 35],A (a value of 3 or above)
15,"C=CC(=O)N1CC2(CCC2Oc2cc(-c3ccc(O)cc3)cn3cncc23)C1 (centres unmarked) [Example 3, 1-(5-((6-(4-hydroxyphenyl)imidazo[1,5-a]pyridin-8-yl)oxy)-2-azaspiro[3.3]heptan-2-yl)prop-2-en-1-one]",A (a value of 3 or above)
16,"C=CC(=O)N1CC[C@H](Oc2cc(-c3ccc(O)cc3)cn3cncc23)C1 [Example 1, (S)-1-(3-((6-(4-hydroxyphenyl)imidazo[1,5-a]pyridin-8-yl)oxy)pyrrolidin-1-yl)prop-2-en-1-one]",A (a value of 3 or above)
17,C=CC(=O)N1CC(CNc2cc(-c3ccc(O)cc3)cn3cncc23)C1 [Example 52],B (a value of 2.3 to 3)
18,C=CC(=O)N1CC[C@H](Oc2cc(-c3ccc(O)cc3)cn3cncc23)C[C@@H]1C [Example 38],A (a value of 3 or above)
19,CCc1cc(O)c(F)cc1-c1cc(O[C@H]2CCCN(C(=O)/C=C/CN(C)C)C2)c2cncn2c1 [Example 18],B (a value of 2.3 to 3)
20,C=CC(=O)N1CC(COc2cc(-c3cc(Cl)c(O)c(Cl)c3)cn3cncc23)C1 [Example 33],A (a value of 3 or above)
21,"C=CC(=O)N1CCC(Oc2cc(-c3ccc(O)cc3)cn3cncc23)C(F)(F)C1 (centres unmarked) [Example 14, 1-(3,3-difluoro-4-((6-(4-hydroxyphenyl)imidazo[1,5-a]pyridin-8-yl)oxy)piperidin-1-yl)prop-2-en-1-one]",A (a value of 3 or above)

row,SMILES,JAK3 (pKi)-JAK1 (pKi)
1,CCc1cc(O)ccc1-c1cc(OCC2CN(C(=O)/C=C/CN(C)C)C2)c2cncn2c1 [Example 25],A (a value of 3 or above)
2,C=CC(=O)N1CCC(Oc2cc(-c3ccc(O)cc3)cn3cncc23)CC1 [Example 30],A (a value of 3 or above)
3,C=CC(=O)N1CC(COc2cc(-c3ccc(O)cc3C)cn3cncc23)C1 [Example 44],A (a value of 3 or above)
4,C=CC(=O)N1CCC[C@H](Oc2cc(-c3ccc(O)cc3)cn3cncc23)C1 [Example 27],A (a value of 3 or above)
5,C=CC(=O)N1CC[C@H](COc2cc(-c3ccc(O)cc3)cn3cncc23)C1 [Example 26],A (a value of 3 or above)
6,C=CC(=O)N1CC(COc2cc(-c3ccc(O)cc3C(F)(F)F)cn3cncc23)C1 [Example 42],A (a value of 3 or above)
7,C=CC(=O)N1[C@@H]2CC[C@H]1C[C@H](Oc1cc(-c3cc(F)c(O)cc3CC)cn3cncc13)C2 [Example 48],A (a value of 3 or above)
8,C=CC(=O)N1CC(COc2cc(-c3cc(C)c(O)cc3C)cn3cncc23)C1 [Example 43],A (a value of 3 or above)
9,C=CC(=O)N1CCC(Oc2cc(-c3cc(F)c(O)cc3CC)cn3cncc23)CC1 [Example 47],B (a value of 2.3 to 3)
10,C=CC(=O)N1[C@@H]2CC[C@H]1C[C@@H](Oc1cc(-c3ccc(O)cc3)cn3cncc13)C2 [Example 36],A (a value of 3 or above)
11,C=CC(=O)N1CC(CSc2cc(-c3ccc(O)cc3)cn3cncc23)C1 [Example 29],A (a value of 3 or above)
12,"C=CC(=O)N1CC(COc2nc(-c3ccc(O)cc3)cn3cncc23)C1 [Example 6, 1-(3-(((6-(4-hydroxyphenyl)imidazo[1,5-a]pyrazin-8-yl)oxy)methyl)azetidin-1-yl)prop-2-en-1-one]",A (a value of 3 or above)
13,"C=CC(=O)N1CC(COc2cc(-c3ccc(O)cc3)cn3cnnc23)C1 [Example 5, 1-(3-(((6-(4-hydroxyphenyl)-[1,2,4]triazolo[4,3-a]pyridin-8-yl)oxy)methyl)azetidin-1-yl)prop-2-en-1-one]",A (a value of 3 or above)
14,C=CC(=O)N1CC(COc2cc(-c3ccc(O)cc3OC)cn3cncc23)C1 [Example 45],A (a value of 3 or above)
15,C=CC(=O)N1CCC[C@H](Nc2cc(-c3ccc(O)cc3)cn3cncc23)C1 [Example 51],B (a value of 2.3 to 3)
16,"C=CC(=O)N1CCC(Nc2cc(-c3ccc(O)cc3)cn3cncc23)CC1 [Example 4, 1-(4-((6-(4-hydroxyphenyl)imidazo[1,5-a]pyridin-8-yl)amino)piperidin-1-yl)prop-2-en-1-one]",B (a value of 2.3 to 3)
17,CN(C)C/C=C/C(=O)N1CC(COc2cc(-c3ccc(O)c(Cl)c3)cn3cncc23)C1 [Example 23],A (a value of 3 or above)
18,C=CC(=O)N1CC2(CC(Oc3cc(-c4ccc(O)cc4)cn4cncc34)C2)C1 [Example 37],A (a value of 3 or above)
19,C=CC(=O)N1CC(COc2cc(-c3ccc(O)cc3CC)cn3cncc23)C1 [Example 21],A (a value of 3 or above)
20,C=CC(=O)N1CC[C@@H](Oc2cc(-c3ccc(O)cc3)cn3cncc23)[C@@H](C)C1 [Example 41],A (a value of 3 or above)

# System: IL-2 stimulated STAT5 phosphorylation in CD4+ T cells isolated from murine splenocytes
# Assay: Inhibition of IL-2 stimulated pSTAT5 in CD4+ T cells isolated from murine splenocytes
# Type: cell-based
# Conditions: Mus musculus, IL-2 7 ng/ml, read-out: pIC50, inhibition of IL-2 stimulated pSTAT5 (converted)
# Experimental: Assay 3: Inhibition of IL-2 Stimulated pSTAT5 in CD4+ T Cells Isolated from Murine Splenocytes
# The potency of test compounds for inhibition of interleukin-2 (IL-2) stimulated STAT5 phosphorylation was measured in the CD4+ T cells isolated from murine splenocytes using AlphaLisa. Because IL-2 signals through JAK3, this assay provides a measure of JAK3 cellular potency in mouse.
# Phosphorylated STAT5 was measured via the AlphaLISA SureFire Ultra pSTAT5 (Tyr694/699) kit (PerkinElmer).
# CD4+ T cells were isolated from murine splenocytes via negative selection on a magnetic column (Miltnyi Biotec) and re-suspended in assay media (phenol red-free DMEM (Life Technologies) supplemented with 10% FBS (ATCC)). Cells were seeded at 50,000 cells/well in assay media (2 μL/well). Compounds were serially diluted in DMSO and diluted to 2× final concentration in assay media. Compound was added (4 μl/well) and the cells incubated at 37° C., 5% CO2 for 1 hour, followed by the addition of IL-2 (R&D Systems; final concentration 7 ng/ml) in pre-warmed assay media (2 μL) for 30 minutes. After cytokine stimulation, cells were lysed with 2 μl of 5× AlphaLisa Lysis Buffer (PerkinElmer). The lysate was shaken at 900 rpm for 10 minutes at room temperature (RT). Phosphorylated STAT5 was measured via the pSTAT5 AlphaLisa kit (PerkinElmer). Freshly prepared acceptor bead mixture was dispensed onto lysate (5 ul) under green filtered <100 lux light. Plates were shaken at 900 rpm for 2 mins, briefly spun down, and incubated for 2 hrs at RT in the dark. Donor beads were dispensed (5 μl) under green filtered <100 lux light. Plates were shaken at 900 rpm for 2 mins, briefly spun down, and incubated overnight at RT in the dark. Luminescence was measured with excitation at 689 nm and emission at 570 nm using an EnVision plate reader (PerkinElmer) under green filtered <100 lux light.
# To determine the inhibitory potency of test compounds in response to IL-2, the average emission intensity of beads bound to pSTAT5 was measured in primary CD4+ T cells isolated from murine splenocytes. IC50 values were determined from analysis of the inhibition curves of signal intensity vs compound concentration. Data are expressed as pIC50 (negative decadic logarithm IC50) values (mean standard deviation).
row,SMILES,IC50
1,CCc1cc(O)c(F)cc1-c1cc(OCC2CN(C(=O)/C=C/CN(C)C)C2)c2cncn2c1 [Example 24],< 1 µM
2,"C=CC(=O)N1CC(COc2cc(-c3cc(F)c(O)cc3CC)cn3cncc23)C1 [Example 13, 1-(3-(((6-(2-ethyl-5-fluoro-4-hydroxyphenyl)imidazo[1,5-a]pyridin-8-yl)oxy)methyl)azetidin-1-yl)prop-2-en-1-one]",< 1 µM
3,C=CC(=O)N1CC(COc2cc(-c3ccc(O)c(F)c3)cn3cncc23)C1 [Example 20],< 1 µM
